In US20170296573A1, “ANTITUMOR DRUG COMPRISING BETA-CYCLODEXTRIN” (JRC G. K., priority 2014, published 2017):

Legend:
[1] = test system: UOK121 cells; assay: Example 10 Test B: cyclodextrin with 2DG-ABT in UOK121 cells, live cells by trypan-blue dye exclusion; type: cell-based, human; conditions: 10 mM 2DG, 10 mM cyclodextrin, 0.3 μM ABT-263, 25 mM glucose
Procedure: (§1) Dead and live cells were counted by trypan-blue dye exclusion methods. These experiments were done in triplicate, and the error bars indicate the standard deviation.
(Test A) UOK121 cells were incubated in 10% serum medium with 5 mM or 10 mM α-, β-, and γ-cyclodextrins for 45 minutes. The same medium without any cyclodextrin was also incubated as a control. The cells were harvested and analyzed by Western Blots for the phosphorylation of AKT and ERK1/2 as an indicator of the AKT and ERK1/2 activations. (Test B) 10 mM 2DG was added to a medium of U0K121 cells in the presence of 25 mM glucose, and the medium was incubated for 1.5 hours. To the medium was added 10 mM α-, β-, or γ-cyclodextrin, and the medium was incubated for 30 minutes. Then, 0.3 μM ABT-263 was added thereto, and the medium was further incubated for 2 hours. Separately, a control that includes only α-, β-, or γ-cyclodextrin without 2DG or ABT-263, and another control that includes neither α-, β-, or γ-cyclodextrin, nor 2DG or ABT-263 were prepared. 2.5 hours after adding each cyclodextrin (i.e., 2 hours after adding ABT-263), all the cells were washed with the medium twice, and next day the live cells were counted by trypan-blue dye exclusion assay.

[2] = test system: RTK-Ras-ERK signals; assay: Example 1 Tests B and C: ERK signals in EGF or IGF1 challenged HeLa cells, Western blot; type: cell-based; conditions: 10 mM bCD (MBCD) 30 minutes, then EGF or IGF1
Procedure: (§2) We ran 20 μg of proteins per lane for western blots. We ran 8, 10, 12.5 and 15% gels depending on the size of proteins being detected by western blots. When there are two proteins having a similar size, gel is flowed in each protein to make western blot analysis about each protein. The immunoprecipitation was undergone by adding 200 μg of protein from solubilized cells and Protein G Sepharose or Protein A Sepharose (Sigma P3296/P9242) pre-conjugated with immunoprecipitation antibody to a buffer for immunoprecipitation, and slowly rotating the tube containing the sample buffer at 4° C. overnight. The buffer for immunoprecipitation comprises 20 mM Tris Ph 7.5, 1% Triton-X100, 150 mM NaCl, phosphatase inhibitor cocktail (Cell Signaling (#58709S)), and 10% glycerol. […] The precipitate in the solution was separated with 15% SDS-PAGE or 12.5% SDS-PAGE and analyzed by Western blotting.
(§3) (Test A) HeLa cells were incubated in serum-free medium with 0, 1.75, 3.5, and 7.0 mM bCD for 30 minutes, which were prepared in duplicate in each bCD concentration. […] The cells were harvested and analyzed by Western Blots for phosphor-serine AKT and AKT, in which the phosphorylation of AKT was used as an indicator of the AKT activation. […] The cells were harvested and analyzed by Western Blots about EGFR, IGF1R, ERK, PI3K, and AKT, as well as each phosphorylation thereof. […]

[3] = test system: AKT; assay: Example 6 Test A: AKT phosphorylation, Panc-1 pancreatic cancer cells; type: cell-based; conditions: Panc-1 cells, 10 mM bCD (MBCD) 30 minutes, 25 mM glucose
Procedure: as §2, with “overnight.” for “overnight. The buffer for immunoprecipitation comprises 20 mM Tris Ph 7.5, 1% Triton-X100, 150 mM NaCl, phosphatase inhibitor cocktail (Cell Signaling (#58709S)), and 10% glycerol.”
(§4) (Test A) HeLa cervical cancer cells, UOK121 renal cancer cells, Panc-1 pancreatic cancer cells, and A431 squamous cancer cells were untreated, pre-treated with 10 mM 2DG, co-incubated with 10 mM bCD for the last 30 minutes, or both-treated with the 10 mM 2DG and the 10 mM bCD, in the presence of 25 mM glucose contained in the media. Each cell was harvested and analyzed by Western Blotting. (Test B) The same samples of A431 cell lysates in Test A were analyzed for EGFR activation, ERK1/2 activation, and PI3K activation. […] The cells were harvested and the live cells were counted by trypan-blue dye exclusion assay. […]

[4] = test system: AKT; assay: Example 6 Test A: AKT phosphorylation, UOK121 renal cancer cells; type: cell-based, human; conditions: 10 mM bCD (MBCD) 30 minutes, 25 mM glucose
Procedure: as §2, with “overnight.” for “overnight. The buffer for immunoprecipitation comprises 20 mM Tris Ph 7.5, 1% Triton-X100, 150 mM NaCl, phosphatase inhibitor cocktail (Cell Signaling (#58709S)), and 10% glycerol.”
as §4

[5] = test system: PI3K-AKT pro-survival signals; assay: Example 1 Tests B and C: EGF or IGF1 challenge of HeLa cells, Western blot for EGFR, IGF1R, PI3K, AKT phosphorylation; type: cell-based; conditions: 10 mM bCD (MBCD) 30 minutes, then 100 ng/mL EGF or 10 ng/mL IGF1
Procedure: as §2, §3

[6] = test system: IGF1-induced hypoglycemia; assay: Example 4: IGF1-induced hypoglycemia in mice; type: in vivo; conditions: five-hour starved mice, 40 μg bCD (HPBCD) 30 minutes before 100 ng IGF1, glucose after thirty minutes
Procedure: Five-hour starved mice were either pre-treated with 40 μg bCD for 30 minutes, or without. They were then injected with 100 ng IGF1. After thirty minutes, the blood glucose levels were measured by drawing blood from each mouse tail. The experiments were performed in triplicate samples and the error bars indicate the standard deviation. The mice were all about 20 g.

[7] = test system: AKT; assay: Example 3 Method C: recovery of AKT activities in HeLa cells after bCD washout; type: cell-based; conditions: 10 mM bCD (MBCD) one hour, washed, 10% serum, up to 120 minutes
Procedure: (§5) We ran 20 μg of proteins per lane for western blots. We ran 8, 10, 12.5 and 15% gels depending on the size of proteins being detected by western blots. When there are two proteins having a similar size, gel is flowed in each protein to make western blot analysis about each protein. The immunoprecipitation was undergone by adding 200 μg of protein from solubilized cells and Protein G Sepharose or Protein A Sepharose (Sigma P3296/P9242) pre-conjugated with immunoprecipitation antibody to a buffer for immunoprecipitation, and slowly rotating the tube containing the sample buffer at 4° C. overnight. The buffer for immunoprecipitation comprises 20 mM Tris Ph 7.5, 1% Triton-X100, 150 mM NaCl, phosphatase inhibitor cocktail (Cell Signaling (#58709S)), and 10% glycerol. Next morning, the content in the tube was centrifuged. The precipitate was washed with the same buffer twice and dissolved in SDS buffer. The precipitate in the solution was separated with 15% SDS-PAGE or 12.5% SDS-PAGE and analyzed by Western blotting.
HeLa cells were incubated with 10 mM bCD for one hour in the presence of 10% serum before the cells were washed and re-incubated in medium containing 10% serum for the indicated period (˜120 minutes).

[8] = test system: AKT; assay: Example 6 Test A: AKT phosphorylation, A431 squamous cancer cells; type: cell-based; conditions: 10 mM bCD (MBCD) 30 minutes, 25 mM glucose
Procedure: as §2, with “overnight.” for “overnight. The buffer for immunoprecipitation comprises 20 mM Tris Ph 7.5, 1% Triton-X100, 150 mM NaCl, phosphatase inhibitor cocktail (Cell Signaling (#58709S)), and 10% glycerol.”
as §4

[9] = test system: EGFR, ERK1/2, and PI3K; assay: Example 6 Test B: EGFR, ERK1/2 and PI3K activation in A431 cells; type: cell-based; conditions: bCD and/or 2DG, 10 mM each
Procedure: as §2, with “overnight.” for “overnight. The buffer for immunoprecipitation comprises 20 mM Tris Ph 7.5, 1% Triton-X100, 150 mM NaCl, phosphatase inhibitor cocktail (Cell Signaling (#58709S)), and 10% glycerol.”
as §4

[10] = test system: AKT; assay: Example 1 Test A: IGF1-stimulated AKT phosphorylation in HeLa cells, Western blot; type: cell-based; conditions: serum-free, 7 mM bCD (MBCD) 30 minutes, 20 ng/mL IGF1 20 minutes
Procedure: as §2, §3

[11] = test system: AKT; assay: Example 3 Method B: AKT phosphorylation in RCC4 cells in 10% serum; type: cell-based; conditions: 10 mM 2DG 2 hours, 10 mM bCD (MBCD) last 30 minutes
Procedure: as §5
RCC4 cells were incubated with or without 10 mM 2DG for 2 hours in the presence of 10% serum. In the last 30 minutes, each one subset of cells treated/untreated with 2DG was exposed to 10 mM bCD before the cells were harvested and analyzed.

[12] = test system: AKT; assay: Example 6 Test A: AKT phosphorylation, HeLa cervical cancer cells; type: cell-based; conditions: 10 mM bCD (MBCD) 30 minutes, 25 mM glucose
Procedure: as §2, with “overnight.” for “overnight. The buffer for immunoprecipitation comprises 20 mM Tris Ph 7.5, 1% Triton-X100, 150 mM NaCl, phosphatase inhibitor cocktail (Cell Signaling (#58709S)), and 10% glycerol.”
as §4

[13] = mice, injected, four hours later; cited from earlier work
[14] = test system: Panc-1 cells; assay: Example 9: 2DG-bCD-TRAIL in Panc-1 cells, live cells by trypan-blue dye exclusion; type: cell-based; conditions: TRAIL 10 ng/ml alone
Procedure: as §1
(A) Panc-1 cells were treated with the standard 2DG-bCD-TRAIL protocol (FIG. 3). The live cells were distinguished from the dead cells by trypan-blue dye exclusion assays, and the live cells were counted, and graphed. The experiments were performed in triplicate and the error bars represent the standard deviations. (B) Western blots of Panc-1 cells left untreated, treated with TRAIL, treated with 2DG-bCD combination, and treated with the combination of 2DG-bCD-TRAIL as depicted in FIG. 3. The cells were harvested at hour 6. The experiments were repeated three times with similar results.

OC[C@H]1O[C@@H]2O[C@H]3[C@H](O)[C@@H](O)[C@@H](O[C@H]4[C@H](O)[C@@H](O)[C@@H](O[C@H]5[C@H](O)[C@@H](O)[C@@H](O[C@H]6[C@H](O)[C@@H](O)[C@@H](O[C@H]7[C@H](O)[C@@H](O)[C@@H](O[C@H]8[C@H](O)[C@@H](O)[C@@H](O[C@H]9[C@H](O)[C@@H](O)[C@@H](O[C@H]1[C@H](O)[C@H]2O)O[C@@H]9CO)O[C@@H]8CO)O[C@@H]7CO)O[C@@H]6CO)O[C@@H]5CO)O[C@@H]4CO)O[C@@H]3CO [γ-cyclodextrin]
enhancement of the combination effect of 2DG-ABT (live cells) [1]: little enhanced

methyl-β-cyclodextrin [bCD]
Ras-ERK proliferation signals [2]: intact
AKT phosphorylation [3]: attenuated
AKT phosphorylation [4]: attenuated
AKT activations [5]: considerably diminished
activation of EGFR, IGF1R, and PI3K [5]: clearly activated
IGF1-induced hypoglycemia (blood glucose) [6]: clearly attenuated
AKT activities coming back after return to media without bCD [7]: did not take long
AKT phosphorylation [8]: attenuated
EGFR, ERK1/2, and PI3K activation [9]: all activated
process that IGF1 generates signal to AKT (AKT phosphorylation) [10]: completely block
phosphorylation of AKT [11]: almost totally absent
AKT phosphorylation [12]: attenuated

CC(O)COC[C@H]1O[C@@H]2O[C@H]3[C@H](O)[C@@H](O)[C@@H](O[C@H]4[C@H](O)[C@@H](O)[C@@H](O[C@H]5[C@H](O)[C@@H](O)[C@@H](O[C@H]6[C@H](O)[C@@H](O)[C@@H](O[C@H]7[C@H](O)[C@@H](O)[C@@H](O[C@H]8[C@H](O)[C@@H](O)[C@@H](O[C@H]1[C@H](O)[C@H]2O)O[C@@H]8COCC(C)O)O[C@@H]7COCC(C)O)O[C@@H]6COCC(C)O)O[C@@H]5COCC(C)O)O[C@@H]4COCC(C)O)O[C@@H]3COCC(C)O (stereo partly drawn) [HPBCD, (2-hydroxypropyl)-β-cyclodextrin]
amount that remains in circulation [13]: about 50%

B1: TRAIL: TNF-related apoptosis-inducing ligand (protein, UniProt P50591 1-281, looked up)
Tumor necrosis factor ligand …: MAMMEVQGGPSLGQTCVLIVIFTVLLQSLCVAVTYVYFTNELKQMQDKYSKSGIACFLKEDDSYWDPNDEESMNSPCWQVKWQLRQLVRKMILRTSEETISTVQEKQQNISPLVRERGPQRVAAHITGTRGRSNTLSSPNSKNEKALGRKINSWESSRSGHSFLSNLHLRNGELVIHEKGFYYIYSQTYFRFQEEIKENTKNDKQMVQYIYKYTSYPDPILLMKSARNSCWSKDAEYGLYSIYQGGIFELKENDRIFVSVTNEHLIDMDHEASFFGAFLVG
effect on Panc-1 cells (live cells) [14]: virtually no effect
